Target: T1, LK (R-selective alcohol dehydrogenase) (Lentilactobacillus kefiri, UniProt Q6WVP7)
T1 construct: gene adh; homo-tetramer; Mg2+ dependent; co-entrapped with FNR in porous ITO electrode
T1 sequence (Q6WVP7 1-252): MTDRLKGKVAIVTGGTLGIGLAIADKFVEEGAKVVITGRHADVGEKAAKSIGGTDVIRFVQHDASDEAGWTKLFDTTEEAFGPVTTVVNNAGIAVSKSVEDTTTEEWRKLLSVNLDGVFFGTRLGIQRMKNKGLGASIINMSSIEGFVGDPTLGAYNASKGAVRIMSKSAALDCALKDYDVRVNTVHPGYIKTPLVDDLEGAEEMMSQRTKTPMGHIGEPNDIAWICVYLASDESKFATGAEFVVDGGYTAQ
Test: chronoamperometry on FNR/ITO electrode, chiral GC
Assay type: biochemical
Details: pH 9.0, 50 mM TAPS, 25 °C, 5 mM Mg2+, 20 uM NADP+; enzyme entrapped with FNR and W110V in ITO electrode

Structure (SMILES): C[C@@H](O)CCc1ccccc1 [(R)-4-phenyl-2-butanol]
- chronoamperometry on FNR/ITO electrode, chiral GC: conversion of (R)-4-phenyl-2-butanol to 4-phenyl-2-butanone by LK
